What was measured:
[1] = target: T1, Tyrosine-protein kinase receptor TYRO3 (Homo sapiens, UniProt Q06418); test: Inhibition of tracer K5 binding to NanoLuc-fused TYRO3 (unknown origin) expressed in HEK293T cells measured after 2 hrs by NanoBRET assay; type: cell-based
T1 sequence (Q06418 whole entry): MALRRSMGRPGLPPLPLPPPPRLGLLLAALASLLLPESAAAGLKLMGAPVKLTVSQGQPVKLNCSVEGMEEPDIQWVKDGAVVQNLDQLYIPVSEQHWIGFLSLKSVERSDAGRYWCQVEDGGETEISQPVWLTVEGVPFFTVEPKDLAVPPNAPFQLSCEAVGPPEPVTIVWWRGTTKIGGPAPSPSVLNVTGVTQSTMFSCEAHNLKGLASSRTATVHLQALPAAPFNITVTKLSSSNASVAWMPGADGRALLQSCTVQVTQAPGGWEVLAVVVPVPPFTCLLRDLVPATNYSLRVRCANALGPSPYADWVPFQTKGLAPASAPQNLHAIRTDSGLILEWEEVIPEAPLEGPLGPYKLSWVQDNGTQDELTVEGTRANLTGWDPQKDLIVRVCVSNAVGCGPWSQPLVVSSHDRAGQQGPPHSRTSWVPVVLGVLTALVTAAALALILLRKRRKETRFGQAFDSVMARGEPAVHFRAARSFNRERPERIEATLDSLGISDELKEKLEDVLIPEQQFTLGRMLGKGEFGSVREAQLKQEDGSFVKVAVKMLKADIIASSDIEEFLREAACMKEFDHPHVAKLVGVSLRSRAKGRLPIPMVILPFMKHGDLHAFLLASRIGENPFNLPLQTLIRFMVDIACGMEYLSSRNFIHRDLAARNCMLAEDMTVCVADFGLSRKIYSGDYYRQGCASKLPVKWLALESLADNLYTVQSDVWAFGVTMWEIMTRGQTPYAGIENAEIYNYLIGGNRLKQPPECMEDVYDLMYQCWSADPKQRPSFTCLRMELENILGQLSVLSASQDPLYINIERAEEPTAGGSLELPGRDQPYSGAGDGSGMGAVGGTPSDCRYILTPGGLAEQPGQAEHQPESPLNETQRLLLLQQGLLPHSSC

[2] = target: Casein kinase I isoform epsilon (Homo sapiens, UniProt P49674); test: Binding affinity to CSNK1E (unknown origin) assessed as change in melting temperature by SYPRO orange dye based DSF assay
Chain of Casein kinase I isoform epsilon (P49674 whole entry, looked up, canonical isoform): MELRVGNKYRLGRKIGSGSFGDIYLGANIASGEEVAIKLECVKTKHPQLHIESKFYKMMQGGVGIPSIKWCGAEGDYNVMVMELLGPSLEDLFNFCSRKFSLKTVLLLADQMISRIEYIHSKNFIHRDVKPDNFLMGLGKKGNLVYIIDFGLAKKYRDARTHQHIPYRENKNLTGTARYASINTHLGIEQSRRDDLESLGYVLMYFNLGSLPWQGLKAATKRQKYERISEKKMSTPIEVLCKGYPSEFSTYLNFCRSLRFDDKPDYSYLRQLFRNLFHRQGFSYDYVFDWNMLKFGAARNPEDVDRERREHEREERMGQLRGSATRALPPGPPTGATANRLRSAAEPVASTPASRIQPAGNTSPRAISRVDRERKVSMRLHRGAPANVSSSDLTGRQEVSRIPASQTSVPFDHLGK

[3] = target: T2, Tyrosine-protein kinase Mer (Homo sapiens) (UniProt Q12866); test: Binding affinity to MERTK (571 to 864 residue) (unknown origin) expressed in Escherichia coli Rosetta cells assessed as change in melting temperature by SYPRO orange dye based DSF assay
T2 sequence (whole entry): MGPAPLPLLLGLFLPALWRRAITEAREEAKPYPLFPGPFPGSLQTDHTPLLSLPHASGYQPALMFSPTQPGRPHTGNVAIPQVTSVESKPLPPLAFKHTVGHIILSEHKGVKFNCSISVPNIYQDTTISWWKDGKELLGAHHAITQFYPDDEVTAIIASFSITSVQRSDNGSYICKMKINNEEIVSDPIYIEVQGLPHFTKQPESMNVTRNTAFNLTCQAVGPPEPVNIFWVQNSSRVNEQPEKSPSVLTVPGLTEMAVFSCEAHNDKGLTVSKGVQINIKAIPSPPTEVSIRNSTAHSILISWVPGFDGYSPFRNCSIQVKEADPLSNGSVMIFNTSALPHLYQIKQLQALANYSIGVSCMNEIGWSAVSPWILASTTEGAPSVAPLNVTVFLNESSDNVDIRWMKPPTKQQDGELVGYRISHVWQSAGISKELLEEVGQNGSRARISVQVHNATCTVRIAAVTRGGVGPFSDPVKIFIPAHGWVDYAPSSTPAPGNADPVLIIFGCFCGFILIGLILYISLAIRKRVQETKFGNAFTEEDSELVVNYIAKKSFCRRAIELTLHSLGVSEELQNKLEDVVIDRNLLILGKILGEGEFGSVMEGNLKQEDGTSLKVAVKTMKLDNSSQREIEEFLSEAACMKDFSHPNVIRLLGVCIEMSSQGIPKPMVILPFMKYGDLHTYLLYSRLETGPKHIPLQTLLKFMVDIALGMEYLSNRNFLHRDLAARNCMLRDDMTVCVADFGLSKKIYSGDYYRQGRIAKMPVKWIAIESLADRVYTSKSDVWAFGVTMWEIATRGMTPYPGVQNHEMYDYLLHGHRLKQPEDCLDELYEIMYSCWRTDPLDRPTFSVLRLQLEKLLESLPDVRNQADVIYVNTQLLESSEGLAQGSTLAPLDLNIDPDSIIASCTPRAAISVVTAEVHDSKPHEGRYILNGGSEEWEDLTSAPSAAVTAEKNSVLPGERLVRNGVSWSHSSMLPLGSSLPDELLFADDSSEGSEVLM

Homo sapiens = species on record: Homo sapiens; test: Binding affinity to MERTK-AXL mutant (unknown origin) expressed in Escherichia coli Rosetta cells assessed as change in melting temperature by SYPRO orange dye based DSF assay
[4] = target: T3, Peripheral plasma membrane protein CASK (Homo sapiens) (UniProt O14936)
T3 sequence (whole entry): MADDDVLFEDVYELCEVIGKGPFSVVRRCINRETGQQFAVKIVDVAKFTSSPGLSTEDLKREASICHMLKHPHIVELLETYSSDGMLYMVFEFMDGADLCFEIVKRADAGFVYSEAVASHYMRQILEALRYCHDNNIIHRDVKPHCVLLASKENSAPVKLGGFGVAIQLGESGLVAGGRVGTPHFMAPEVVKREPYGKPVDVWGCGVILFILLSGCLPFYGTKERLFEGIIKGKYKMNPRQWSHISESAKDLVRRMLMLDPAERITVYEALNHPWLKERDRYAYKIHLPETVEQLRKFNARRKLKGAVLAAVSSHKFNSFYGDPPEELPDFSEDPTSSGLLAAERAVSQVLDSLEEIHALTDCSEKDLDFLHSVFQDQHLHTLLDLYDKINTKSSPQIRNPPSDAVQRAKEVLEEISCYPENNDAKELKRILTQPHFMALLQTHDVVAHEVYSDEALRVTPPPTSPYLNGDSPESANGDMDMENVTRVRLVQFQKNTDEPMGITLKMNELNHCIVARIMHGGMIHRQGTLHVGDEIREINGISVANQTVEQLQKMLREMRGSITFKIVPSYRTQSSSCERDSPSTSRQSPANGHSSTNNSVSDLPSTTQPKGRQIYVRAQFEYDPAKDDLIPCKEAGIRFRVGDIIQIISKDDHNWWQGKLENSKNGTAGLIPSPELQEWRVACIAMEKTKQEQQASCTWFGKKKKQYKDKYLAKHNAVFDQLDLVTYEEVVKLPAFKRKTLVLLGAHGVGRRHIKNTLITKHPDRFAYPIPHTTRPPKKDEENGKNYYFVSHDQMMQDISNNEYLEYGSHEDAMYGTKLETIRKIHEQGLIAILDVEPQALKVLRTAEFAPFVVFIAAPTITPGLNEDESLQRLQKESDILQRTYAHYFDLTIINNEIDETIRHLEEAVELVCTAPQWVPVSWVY
Description: Binding affinity to recombinant N-terminal His-tagged CASK (1 to 337 residues) (unknown origin) expressed in Escherichia coli assessed as change in melting temperature by SYPRO orange dye based DSF assay

[5] = target: T4, Tyrosine-protein kinase ABL1 (Homo sapiens, UniProt P00519)
T4 sequence (P00519 whole entry, the tested form may be a part): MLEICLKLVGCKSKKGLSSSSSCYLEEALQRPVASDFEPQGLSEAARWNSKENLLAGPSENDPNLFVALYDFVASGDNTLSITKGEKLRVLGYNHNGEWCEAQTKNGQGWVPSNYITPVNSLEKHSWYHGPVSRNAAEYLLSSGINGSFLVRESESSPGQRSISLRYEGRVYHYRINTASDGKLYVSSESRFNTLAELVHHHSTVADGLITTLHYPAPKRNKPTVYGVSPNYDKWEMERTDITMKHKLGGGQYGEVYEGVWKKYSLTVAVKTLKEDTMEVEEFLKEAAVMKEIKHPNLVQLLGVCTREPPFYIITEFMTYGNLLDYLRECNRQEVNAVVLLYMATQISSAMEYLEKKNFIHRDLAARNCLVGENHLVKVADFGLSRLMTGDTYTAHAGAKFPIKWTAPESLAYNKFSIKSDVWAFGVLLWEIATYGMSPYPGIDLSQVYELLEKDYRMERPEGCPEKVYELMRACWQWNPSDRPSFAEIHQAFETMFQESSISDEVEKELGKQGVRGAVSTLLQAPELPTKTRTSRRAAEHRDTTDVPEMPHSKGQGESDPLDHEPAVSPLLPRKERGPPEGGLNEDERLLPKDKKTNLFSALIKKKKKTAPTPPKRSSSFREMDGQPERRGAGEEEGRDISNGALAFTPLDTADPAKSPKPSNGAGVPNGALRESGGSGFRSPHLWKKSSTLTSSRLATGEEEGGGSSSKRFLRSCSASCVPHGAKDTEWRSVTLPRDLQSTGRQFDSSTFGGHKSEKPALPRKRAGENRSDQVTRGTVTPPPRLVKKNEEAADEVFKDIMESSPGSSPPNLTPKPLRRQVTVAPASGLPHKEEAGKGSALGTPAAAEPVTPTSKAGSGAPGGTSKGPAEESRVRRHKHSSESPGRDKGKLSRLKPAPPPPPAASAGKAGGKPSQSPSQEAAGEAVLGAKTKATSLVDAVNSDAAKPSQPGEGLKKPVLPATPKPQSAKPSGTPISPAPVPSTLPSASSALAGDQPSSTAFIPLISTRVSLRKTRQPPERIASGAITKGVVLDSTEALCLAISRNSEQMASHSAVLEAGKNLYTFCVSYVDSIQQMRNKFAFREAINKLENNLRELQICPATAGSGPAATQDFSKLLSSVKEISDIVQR
Description: Binding affinity to non-phosphorylated ABL1 (unknown origin) assessed as change in melting temperature by SYPRO orange dye based DSF assay

[6] = target: T5, Tyrosine-protein kinase Mer (Homo sapiens, UniProt Q12866); test: Inhibition of tracer K5 binding to NanoLuc-fused MERTK (unknown origin) expressed in HEK293T cells measured after 2 hrs by NanoBRET assay; type: cell-based
T5 sequence (Q12866 whole entry): T2 sequence (whole entry)

[7] = target: T6, Tyrosine-protein kinase receptor UFO (Homo sapiens, UniProt P30530); test: Inhibition of tracer K5 binding to NanoLuc-fused AXL (unknown origin) expressed in HEK293T cells measured after 2 hrs by NanoBRET assay; type: cell-based
T6 sequence (P30530 whole entry): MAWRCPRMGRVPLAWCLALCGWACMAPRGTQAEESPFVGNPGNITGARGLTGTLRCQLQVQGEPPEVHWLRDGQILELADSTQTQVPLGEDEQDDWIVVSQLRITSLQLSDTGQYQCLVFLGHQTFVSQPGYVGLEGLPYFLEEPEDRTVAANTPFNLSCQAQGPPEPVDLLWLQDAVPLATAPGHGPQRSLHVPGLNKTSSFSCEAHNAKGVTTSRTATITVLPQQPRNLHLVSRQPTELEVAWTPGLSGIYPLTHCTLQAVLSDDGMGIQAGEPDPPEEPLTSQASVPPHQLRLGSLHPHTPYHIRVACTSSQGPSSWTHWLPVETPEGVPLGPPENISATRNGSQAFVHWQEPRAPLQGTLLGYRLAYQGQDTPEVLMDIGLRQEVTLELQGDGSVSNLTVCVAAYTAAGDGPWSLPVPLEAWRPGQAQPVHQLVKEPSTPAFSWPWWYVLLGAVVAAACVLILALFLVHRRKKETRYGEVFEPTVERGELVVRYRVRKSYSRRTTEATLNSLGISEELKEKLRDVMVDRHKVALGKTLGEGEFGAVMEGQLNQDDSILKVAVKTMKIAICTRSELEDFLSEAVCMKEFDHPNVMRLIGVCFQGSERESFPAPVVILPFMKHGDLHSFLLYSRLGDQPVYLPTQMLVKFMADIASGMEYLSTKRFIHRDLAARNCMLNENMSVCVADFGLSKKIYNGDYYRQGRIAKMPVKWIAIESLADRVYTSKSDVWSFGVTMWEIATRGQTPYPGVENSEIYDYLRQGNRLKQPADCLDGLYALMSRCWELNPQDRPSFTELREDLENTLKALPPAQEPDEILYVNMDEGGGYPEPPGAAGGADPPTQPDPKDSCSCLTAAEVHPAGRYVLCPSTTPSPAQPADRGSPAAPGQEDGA

[8] = target: T4, Tyrosine-protein kinase ABL1; test: Inhibition of tracer K5 binding to NanoLuc-fused ABL1 (unknown origin) expressed in HEK293T cells measured after 2 hrs by NanoBRET assay; type: cell-based

Row | SMILES | IC50 [1] | deltaTm [2] | deltaTm [3] | deltaTm [4] | deltaTm [5] | IC50 [6] | IC50 [7] | IC50 [8] | deltaTm (Homo sapiens)
1 | CCN(Cc1ccccc1)c1ncc(C(=O)NCCCN2CCCC2=O)c(NC2CCCC2)n1 | > 10 µM |  |  |  |  |  |  |  | 
2 | O=C(NCCCN1CCCC1=O)c1cnc(NCc2ccccc2)nc1NC1CCCC1 |  | 4.3 K | 0.5 K | 0.8 K | 4.5 K |  |  |  | 0.4 K
3 | CN[C@@H]1C[C@H]2O[C@@](C)([C@@H]1OC)n1c3ccccc3c3c4c(c5c6ccccc6n2c5c31)C(=O)NC4 |  | 2.3 K | 4.8 K |  |  |  |  |  | 
4 | O=C(NCCCN1CCCC1=O)c1cnc(NCc2ccc(Cl)cc2Cl)nc1NC1CCCC1 | > 10 µM | 2.1 K | 0.1 K |  | 2.3 K | > 10 µM | > 10 µM | > 10 µM | 0 K
5 | O=C(NCCCN1CCCC1=O)c1cnc(NCc2cccc(Br)c2)nc1NC1CCCC1 |  | 6.5 K | 0.6 K | 3.8 K | 6.9 K |  |  |  | 0.3 K
6 | O=C(NCCCN1CCCC1=O)c1cnc(NCc2ccccc2Cl)nc1NC1CCCC1 |  | 4.8 K | -0.1 K | 3.3 K | 5.9 K |  |  |  | -0.2 K
7 | O=C(NCCCN1CCCC1=O)c1cnc(NCc2cc(Cl)ccc2Cl)nc1Nc1ccccc1 |  | 3.6 K | -0.7 K | 1.4 K | 2.9 K |  |  |  | -0.3 K
8 | O=C(NCCCN1CCCC1=O)c1cnc(NCc2cc(Br)ccc2Br)nc1NC1CCCC1 |  | 4.4 K | -0.7 K |  | 6.3 K |  |  |  | 0.2 K
9 | O=C(NCCCN1CCCC1=O)c1cnc(NCc2cc(Cl)ccc2Cl)nc1NC1CCCC1 |  | 4.8 K | -0.7 K |  | 6 K |  |  |  | -0.2 K

Now from value to molecule, other results behind:

Row | IC50 [1] | deltaTm [2] | deltaTm [3] | deltaTm [4] | deltaTm [5] | IC50 [6] | IC50 [7] | IC50 [8] | SMILES | deltaTm (Homo sapiens)
10 |  | 4 K | -0.4 K | 1.4 K | 4.9 K |  |  |  | O=C(NCCCN1CCCC1=O)c1cnc(NCc2cc(Cl)ccc2Cl)nc1NC1CC1 | -0.2 K
11 |  | 2.2 K | -0.1 K | 1.2 K | 6.8 K |  |  |  | O=C(NCCCN1CCCC1=O)c1cnc(NCc2ccc(Br)cc2)nc1NC1CCCC1 | 0 K
12 |  | 0.4 K | -0.5 K | 0.8 K | 0.7 K |  |  |  | COc1ccc(OC)c(CNc2ncc(C(=O)NCCCN3CCCC3=O)c(NC3CCCC3)n2)c1 | -0.2 K
13 |  | 5 K | -0.2 K | 5.7 K | 7.7 K |  |  |  | O=C(NCCCN1CCCC1=O)c1cnc(NCc2cc(Cl)ccc2Cl)nc1NC1CCCCC1 | 0.1 K
14 |  | 0.1 K | -0.2 K | 6.1 K | 5.8 K |  |  |  | Cc1ccc(CNc2ncc(C(=O)NCCCN3CCOC3=O)c(NC3CCCC3)n2)c(Br)c1 | -0.1 K
15 |  | 5.9 K | 0.6 K |  | 6.1 K | 4.48 µM |  |  | O=C(NCCCN1CCCC1=O)c1cnc(NCc2cc(F)ccc2F)nc1NC1CCCC1 | 0.3 K
16 |  | 1.5 K | 0.7 K | 6 K | 6.2 K |  |  |  | Cc1ccc(CNc2ncc(C(=O)NCCCN3CCOC3=O)c(NC3CCCCC3)n2)c(Br)c1 | -0.1 K
17 |  | 3.6 K | -0.6 K | 5.1 K | 6 K |  |  |  | O=C(NCCCN1CCOC1=O)c1cnc(NCc2cc(Br)ccc2Br)nc1NC1CCCC1 | 0.2 K
18 |  | 4.4 K | -0.5 K | 4.8 K | 7 K |  |  |  | O=C(NCCCN1CCCC1=O)c1cnc(NCc2ccccc2Br)nc1NC1CCCC1 | -0.1 K
